According to patent US12156880B2, “Heterocyclic RIP1 kinase inhibitors” (Rigel Pharmaceuticals, Inc., priority 2021, dated 2024):
pIC50: −log10 of the molar value.

Assays:
L929 cells = test: L929 cell necroptosis assay (TNFa + zVAD, CellTiter-Glo recovery); type: cell-based, murine; conditions: Mus musculus, L929, 18 h, TNFa 2 ng/mL + zVAD-fmk, read-out: L929-CTG-recovery, L929, TNFa + zVAD (IC50)
How it was run: (§1)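 Human U937 (50K/well, 60 uM zVAD-fmk medium, plated same day) or murine L929 (10K/well, plated 18 h, then 40 uM zVAD-fmk medium) were grown in RPMI with 10% FBS. Both were pretreated with compound for 1 h at 37 °C before TNFa at 2 ng/mL final. Viability was read by CellTiter-Glo luminescence after 18 h.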

RIPK1 = target: T1, RIPK1 (Homo sapiens, UniProt Q13546); test: RIPK1 ADP-Glo biochemical kinase assay; conditions: read-out: RIPK1 ADP-Glo Kinase (IC50)
T1 sequence (Q13546 1-671): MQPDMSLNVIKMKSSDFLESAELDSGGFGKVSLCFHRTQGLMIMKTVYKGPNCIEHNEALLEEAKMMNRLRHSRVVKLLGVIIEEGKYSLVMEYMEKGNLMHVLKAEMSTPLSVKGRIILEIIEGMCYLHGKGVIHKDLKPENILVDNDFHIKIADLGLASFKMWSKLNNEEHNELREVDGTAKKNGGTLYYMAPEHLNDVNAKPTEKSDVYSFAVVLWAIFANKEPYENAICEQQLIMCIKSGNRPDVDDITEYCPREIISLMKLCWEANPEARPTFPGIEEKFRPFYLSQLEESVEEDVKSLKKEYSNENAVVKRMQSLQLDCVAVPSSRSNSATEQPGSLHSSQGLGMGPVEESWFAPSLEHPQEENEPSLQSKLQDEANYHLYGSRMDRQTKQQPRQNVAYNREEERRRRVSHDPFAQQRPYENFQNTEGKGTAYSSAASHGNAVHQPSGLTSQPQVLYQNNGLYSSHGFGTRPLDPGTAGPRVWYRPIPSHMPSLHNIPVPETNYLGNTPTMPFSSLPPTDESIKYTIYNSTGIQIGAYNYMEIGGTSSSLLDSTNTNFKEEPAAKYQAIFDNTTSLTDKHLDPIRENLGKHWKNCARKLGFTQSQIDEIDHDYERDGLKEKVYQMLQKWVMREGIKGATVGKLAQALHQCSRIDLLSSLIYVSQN
How it was run: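 RIPK1 at 31 ng/well in Tris pH 7.4 buffer with MgCl2, BSA, DTT and MnCl2, reacted with compounds (duplicate) for 30 min at 30 °C. ADP formed detected by ADP-Glo: 40 min stop/depletion, then 30 min detection reagent at room temperature; luminescence read.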

U937 cells = test: U937 cell necroptosis assay (TNFa + zVAD, CellTiter-Glo recovery); type: cell-based; conditions: Homo sapiens, U-937, 18 h, TNFa 2 ng/mL + zVAD-fmk, read-out: U937 Zvad TNF CTG Recovery, U937, TNFa + zVAD (IC50)
How it was run: as §1

pIC50 (RIPK1)	SMILES	pIC50 (L929 cells)	pIC50 (U937 cells)
7.89	CN1C(=O)[C@@H](NC(=O)c2cc(Oc3cncc(F)c3)ccn2)COc2ccc(C#CC(C)(C)O)cc21 [I-60, (S)-4-((5-fluoropyridin-3-yl)oxy)-N-(7-(3-hydroxy-3-methylbut-1-yn-1-yl)-5-methyl-4-oxo-2,3,4,5-tetrahydrobenzo[b][1,4]oxazepin-3-yl)picolinamide]	5.34	7.92
7.61	CN1C(=O)[C@@H](NC(=O)c2cc(Cc3cccnc3)ccn2)COc2ccc(C#CC(C)(C)O)cc21 [I-61, (S)—N-(7-(3-hydroxy-3-methylbut-1-yn-1-yl)-5-methyl-4-oxo-2,3,4,5-tetrahydrobenzo[b][1,4]oxazepin-3-yl)-4-(pyridin-3-ylmethyl)picolinamide]	5.62	7.72
7.67	CN1C(=O)[C@@H](NC(=O)c2cc(Cc3cccnc3)ccn2)COc2ccc(C#CC3(O)COC3)cc21 [I-62, (S)—N-(7-((3-hydroxyoxetan-3-yl)ethynyl)-5-methyl-4-oxo-2,3,4,5-tetrahydrobenzo[b][1,4]oxazepin-3-yl)-4-(pyridin-3-ylmethyl)picolinamide]	5.86	7.96
7.71	CN1C(=O)[C@@H](NC(=O)c2cc(Oc3cccnc3)ccn2)COc2ccc(C#CC3CCOCC3)cc21 [I-63, (S)—N-(5-methyl-4-oxo-7-((tetrahydro-2H-pyran-4-yl)ethynyl)-2,3,4,5-tetrahydrobenzo[b][1,4]oxazepin-3-yl)-4-(pyridin-3-yloxy)picolinamide]	7.22	9.15
7.51	CN1C(=O)[C@@H](NC(=O)c2cc(Cc3ccccn3)ccn2)COc2ccc(C#CC3(O)COC3)cc21 [I-64, (S)—N-(7-((3-hydroxyoxetan-3-yl)ethynyl)-5-methyl-4-oxo-2,3,4,5-tetrahydrobenzo[b][1,4]oxazepin-3-yl)-4-(pyridin-2-ylmethyl)picolinamide]	6.12	7.17
7.70	CN1C(=O)[C@@H](NC(=O)c2cc(Oc3cncc(F)c3)ccn2)COc2ccc(C#CC3COC3)cc21 [I-67, (S)-4-((5-fluoropyridin-3-yl)oxy)-N-(5-methyl-7-(oxetan-3-ylethynyl)-4-oxo-2,3,4,5-tetrahydrobenzo[b][1,4]oxazepin-3-yl)picolinamide]	6.46	8.89
7.48	Cc1ccc(Cc2ccnc(C(=O)N[C@H]3COc4ccc(C#CC(C)(C)O)cc4N(C)C3=O)c2)cn1 [I-72, (S)—N-(7-(3-hydroxy-3-methylbut-1-yn-1-yl)-5-methyl-4-oxo-2,3,4,5-tetrahydrobenzo[b][1,4]oxazepin-3-yl)-4-((6-methylpyridin-3-yl)methyl)picolinamide]	5.52	6.72
7.44	Cc1ncccc1Oc1ccnc(C(=O)N[C@H]2COc3ccc(C#CC(C)(C)O)cc3N(C)C2=O)c1 [I-74, (S)—N-(7-(3-hydroxy-3-methylbut-1-yn-1-yl)-5-methyl-4-oxo-2,3,4,5-tetrahydrobenzo[b][1,4]oxazepin-3-yl)-4-((2-methylpyridin-3-yl)oxy)picolinamide]	5.45	6.90
7.89	CN1C(=O)[C@@H](NC(=O)c2cc(Cc3cscn3)ccn2)COc2ccc(C#CC3(O)COC3)cc21 [I-76, (S)—N-(7-((3-hydroxyoxetan-3-yl)ethynyl)-5-methyl-4-oxo-2,3,4,5-tetrahydrobenzo[b][1,4]oxazepin-3-yl)-4-(thiazol-4-ylmethyl)picolinamide]	6.27	7.61
7.17	Cc1ccc(Oc2ccnc(C(=O)N[C@H]3COc4ccc(C#CC5(O)COC5)cc4N(C)C3=O)c2)c(C)n1 [I-79, (S)-4-((2,6-dimethylpyridin-3-yl)oxy)-N-(7-((3-hydroxyoxetan-3-yl)ethynyl)-5-methyl-4-oxo-2,3,4,5-tetrahydrobenzo[b][1,4]oxazepin-3-yl)picolinamide]	5.36	6.74

Second part, the compound before the results:

SMILES	pIC50 (RIPK1)	pIC50 (L929 cells)	pIC50 (U937 cells)
CN1C(=O)[C@@H](NC(=O)c2cc(Oc3cncc(F)c3)ccn2)COc2ccc(C#CC3(O)COC3)cc21 [I-59, (S)-4-((5-fluoropyridin-3-yl)oxy)-N-(7-((3-hydroxyoxetan-3-yl)ethynyl)-5-methyl-4-oxo-2,3,4,5-tetrahydrobenzo[b][1,4]oxazepin-3-yl)picolinamide]	7.80	6.42	8.46
Cc1nc(Cc2ccnc(C(=O)N[C@H]3COc4ccc(C#CC(C)(C)O)cc4N(C)C3=O)c2)cs1 [I-65, (S)—N-(7-(3-hydroxy-3-methylbut-1-yn-1-yl)-5-methyl-4-oxo-2,3,4,5-tetrahydrobenzo[b][1,4]oxazepin-3-yl)-4-((2-methylthiazol-4-yl)methyl)picolinamide]	7.74	7.12	7.36
Cc1nc(Cc2ccnc(C(=O)N[C@H]3COc4ccc(C#CC5(O)COC5)cc4N(C)C3=O)c2)cs1 [I-66, (S)—N-(7-((3-hydroxyoxetan-3-yl)ethynyl)-5-methyl-4-oxo-2,3,4,5-tetrahydrobenzo[b][1,4]oxazepin-3-yl)-4-((2-methylthiazol-4-yl)methyl)picolinamide]	7.81	7.01	7.45
CN1C(=O)[C@@H](NC(=O)c2cc(Cn3cccn3)ccn2)COc2ccc(C#CC3(O)COC3)cc21 [I-70, (S)-4-((1H-pyrazol-1-yl)methyl)-N-(7-((3-hydroxyoxetan-3-yl)ethynyl)-5-methyl-4-oxo-2,3,4,5-tetrahydrobenzo[b][1,4]oxazepin-3-yl)picolinamide]	7.35	5.58	6.55
CN1C(=O)[C@@H](NC(=O)c2cc(Cn3cccn3)ccn2)COc2ccc(C#CC(C)(C)O)cc21 [I-71, (S)-4-((1H-pyrazol-1-yl)methyl)-N-(7-(3-hydroxy-3-methylbut-1-yn-1-yl)-5-methyl-4-oxo-2,3,4,5-tetrahydrobenzo[b][1,4]oxazepin-3-yl)picolinamide]	7.06	5.67	6.26
Cc1ccc(Cc2ccnc(C(=O)N[C@H]3COc4ccc(C#CC5(O)COC5)cc4N(C)C3=O)c2)cn1 [I-73, (S)—N-(7-((3-hydroxyoxetan-3-yl)ethynyl)-5-methyl-4-oxo-2,3,4,5-tetrahydrobenzo[b][1,4]oxazepin-3-yl)-4-((6-methylpyridin-3-yl)methyl)picolinamide]	7.56	5.71	7.04
Cc1ncccc1Oc1ccnc(C(=O)N[C@H]2COc3ccc(C#CC4(O)COC4)cc3N(C)C2=O)c1 [I-75, (S)—N-(7-((3-hydroxyoxetan-3-yl)ethynyl)-5-methyl-4-oxo-2,3,4,5-tetrahydrobenzo[b][1,4]oxazepin-3-yl)-4-((2-methylpyridin-3-yl)oxy)picolinamide]	7.98	5.73	7.46
CN1C(=O)[C@@H](NC(=O)c2cc(Cc3cscn3)ccn2)COc2ccc(C#CC(C)(C)O)cc21 [I-77, (S)—N-(7-(3-hydroxy-3-methylbut-1-yn-1-yl)-5-methyl-4-oxo-2,3,4,5-tetrahydrobenzo[b][1,4]oxazepin-3-yl)-4-(thiazol-4-ylmethyl)picolinamide]	7.66	6.14	7.21
Cc1ccc(Oc2ccnc(C(=O)N[C@H]3COc4ccc(C#CC(C)(C)O)cc4N(C)C3=O)c2)c(C)n1 [I-78, (S)-4-((2,6-dimethylpyridin-3-yl)oxy)-N-(7-(3-hydroxy-3-methylbut-1-yn-1-yl)-5-methyl-4-oxo-2,3,4,5-tetrahydrobenzo[b][1,4]oxazepin-3-yl)picolinamide]	7.44	5.17	6.34
Cc1ncccc1Oc1ccnc(C(=O)N[C@H]2COc3ccc(C#CC4(O)CCC4)cc3N(C)C2=O)c1 [I-82, (S)—N-(7-((1-hydroxycyclobutyl)ethynyl)-5-methyl-4-oxo-2,3,4,5-tetrahydrobenzo[b][1,4]oxazepin-3-yl)-4-((2-methylpyridin-3-yl)oxy)picolinamide]	7.53	5.35	7.52
